# From ChEMBL document CHEMBL4613271, “Application of Atypical Acetyl-lysine Methyl Mimetics in the Development of Selective Inhibitors of the Bromodomain-Containing Protein 7 (BRD7)/Bromodomain-Containing Protein 9 (BRD9) Bromodomains” (J Med Chem, 2020)
# pIC50, pKi: −log10 of the molar value.
# Legend:
# [1] = molecular target: T1, Bromodomain-containing protein 9 (Homo sapiens, UniProt Q9H8M2)
# T1 sequence (Q9H8M2 whole entry): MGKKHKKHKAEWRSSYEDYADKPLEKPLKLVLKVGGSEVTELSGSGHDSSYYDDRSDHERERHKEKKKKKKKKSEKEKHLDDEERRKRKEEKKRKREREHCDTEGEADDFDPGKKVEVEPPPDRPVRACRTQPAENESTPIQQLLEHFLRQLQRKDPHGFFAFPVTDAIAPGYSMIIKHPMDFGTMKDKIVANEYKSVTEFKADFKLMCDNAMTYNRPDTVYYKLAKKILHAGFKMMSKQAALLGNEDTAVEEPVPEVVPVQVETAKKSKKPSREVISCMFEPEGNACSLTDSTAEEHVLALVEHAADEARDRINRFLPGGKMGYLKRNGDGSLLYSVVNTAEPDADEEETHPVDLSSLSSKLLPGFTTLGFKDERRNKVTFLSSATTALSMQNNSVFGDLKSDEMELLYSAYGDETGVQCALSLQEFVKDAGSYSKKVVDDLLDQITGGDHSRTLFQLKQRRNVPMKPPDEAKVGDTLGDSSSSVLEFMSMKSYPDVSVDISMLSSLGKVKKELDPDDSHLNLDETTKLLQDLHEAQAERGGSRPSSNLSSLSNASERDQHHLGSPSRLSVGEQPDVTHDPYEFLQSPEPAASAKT
# Description: Binding affinity to human partial length BRD9 (R130 to V259 residues) expressed in bacterial expression system by BROMOscan assay
# [2] = molecular target: T2, Bromodomain-containing protein 4 (Homo sapiens, UniProt O60885); test: Binding affinity to BRD4 (1) (unknown origin) N-terminal bromodomain by TR-FRET assay
# [3] = molecular target: T2, Bromodomain-containing protein 4; test: Binding affinity to human partial length BRD4 (1) (N44 to E168 residues) expressed in bacterial expression system by BROMOscan assay
# [4] = Chromatographic hydrophobicity index, logD of the compound at pH 7.4 by HPLC analysis; format: physicochemical; conditions: buffer
# [5] = molecular target: T3, Peregrin (Homo sapiens, UniProt P55201); test: Binding affinity to human partial length BRPF1 (E627 to G740 residues) expressed in bacterial expression system by BROMOscan assay
# T3 sequence (P55201 whole entry): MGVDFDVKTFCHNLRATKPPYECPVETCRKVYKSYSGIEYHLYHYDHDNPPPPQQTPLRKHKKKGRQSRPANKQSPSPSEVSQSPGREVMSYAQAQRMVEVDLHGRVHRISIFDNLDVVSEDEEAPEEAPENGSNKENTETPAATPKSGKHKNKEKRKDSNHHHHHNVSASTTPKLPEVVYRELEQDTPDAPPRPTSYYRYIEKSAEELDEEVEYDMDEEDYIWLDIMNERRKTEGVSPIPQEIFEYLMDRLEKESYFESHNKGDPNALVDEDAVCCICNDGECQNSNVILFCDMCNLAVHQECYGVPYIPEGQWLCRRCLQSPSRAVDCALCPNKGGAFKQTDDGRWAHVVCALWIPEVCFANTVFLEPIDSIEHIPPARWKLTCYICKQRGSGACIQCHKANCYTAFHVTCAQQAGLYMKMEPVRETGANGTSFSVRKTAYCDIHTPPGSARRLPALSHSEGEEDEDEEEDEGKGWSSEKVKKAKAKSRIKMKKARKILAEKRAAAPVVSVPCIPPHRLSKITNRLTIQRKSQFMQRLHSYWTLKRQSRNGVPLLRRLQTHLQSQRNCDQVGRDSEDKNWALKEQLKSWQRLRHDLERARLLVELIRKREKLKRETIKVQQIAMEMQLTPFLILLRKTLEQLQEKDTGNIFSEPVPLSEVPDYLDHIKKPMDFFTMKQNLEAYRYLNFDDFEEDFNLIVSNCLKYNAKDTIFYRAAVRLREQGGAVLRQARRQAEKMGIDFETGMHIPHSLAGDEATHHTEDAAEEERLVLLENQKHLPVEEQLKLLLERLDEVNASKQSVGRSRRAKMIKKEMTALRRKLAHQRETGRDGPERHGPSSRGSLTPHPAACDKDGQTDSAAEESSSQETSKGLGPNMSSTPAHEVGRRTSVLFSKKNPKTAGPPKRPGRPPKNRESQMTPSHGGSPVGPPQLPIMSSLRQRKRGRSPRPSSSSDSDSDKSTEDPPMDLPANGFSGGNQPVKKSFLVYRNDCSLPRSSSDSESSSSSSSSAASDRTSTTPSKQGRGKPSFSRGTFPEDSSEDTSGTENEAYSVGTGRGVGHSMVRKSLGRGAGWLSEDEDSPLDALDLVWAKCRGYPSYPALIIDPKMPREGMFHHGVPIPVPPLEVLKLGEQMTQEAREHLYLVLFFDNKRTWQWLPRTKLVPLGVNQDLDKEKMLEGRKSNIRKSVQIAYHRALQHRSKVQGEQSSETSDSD
# [6] = molecular target: T1, Bromodomain-containing protein 9; test: Binding affinity to BRD9 (unknown origin) N-terminal bromodomain by TR-FRET assay
# [7] = organism: Homo sapiens; test: Selectivity index, ratio of IC50 for binding affinity to BRD4 (1) (unknown origin) N-terminal bromodomain to IC50 for binding affinity to BRD9 (unknown origin) N-terminal bromodomain
# [8] = molecular target: T4, Bromodomain-containing protein 7 (Homo sapiens, UniProt Q9NPI1); test: Binding affinity to BRD7 (unknown origin)
# T4 sequence (Q9NPI1 whole entry): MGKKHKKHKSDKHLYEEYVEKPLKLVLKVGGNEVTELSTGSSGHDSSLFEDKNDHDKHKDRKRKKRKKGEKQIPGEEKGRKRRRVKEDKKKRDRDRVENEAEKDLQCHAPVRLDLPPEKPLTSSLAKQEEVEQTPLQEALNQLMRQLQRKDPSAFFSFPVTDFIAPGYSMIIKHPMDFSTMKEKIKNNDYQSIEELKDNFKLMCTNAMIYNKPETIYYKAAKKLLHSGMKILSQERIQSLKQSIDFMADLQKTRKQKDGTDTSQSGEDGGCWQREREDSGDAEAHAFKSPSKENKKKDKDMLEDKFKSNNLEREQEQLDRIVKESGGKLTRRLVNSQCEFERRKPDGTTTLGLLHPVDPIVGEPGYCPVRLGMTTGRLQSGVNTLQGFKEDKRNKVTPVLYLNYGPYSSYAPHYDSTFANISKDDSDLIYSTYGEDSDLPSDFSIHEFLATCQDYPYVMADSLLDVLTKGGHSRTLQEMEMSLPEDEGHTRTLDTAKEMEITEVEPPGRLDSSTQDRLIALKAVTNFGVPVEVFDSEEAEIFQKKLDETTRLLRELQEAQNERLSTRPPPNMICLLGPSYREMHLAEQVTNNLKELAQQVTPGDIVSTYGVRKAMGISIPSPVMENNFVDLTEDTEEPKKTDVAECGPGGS
# [9] = molecular target: T5, Bromodomain-containing protein 9 (Homo sapiens) (UniProt Q9H8M2); test: Inhibition of human partial length BRD9 (R130 to V259 residues) expressed in bacterial expression system at 10 uM by BROMOscan assay relative to control
# T5 sequence (whole entry): T1 sequence (Q9H8M2 whole entry)
# [10] = Permeability by PAMPA; format: ADME; conditions: read-out: permeability
# [11] = Solubility of compound by CLND method; format: physicochemical
# [12] = organism: Homo sapiens; test: Selectivity index, ratio of IC50 for binding affinity to PCAF (unknown origin) N-terminal bromodomain to IC50 for binding affinity to BRD9 (unknown origin) N-terminal bromodomain
Structure (SMILES),pKi [1],pIC50 [2],pKi [3],chromatographic logD [4],pKi [5],pIC50 [6],fold selectivity [7],other results
Cc1c(Nc2cccc3c2CCN(C)C3)cnn(C)c1=O,6.80,4.40,–,–,–,–,–,–
CCCc1c(NCc2ccccc2N2CCN(C)CC2)cnn(C)c1=O,6.90,–,< 5.00,2.8,< 5.00,–,–,–
COc1cc(-c2cn(C)c(=O)c3cnccc23)c(OC)cc1CN(C)CC(=O)NCCOCCOCCNc1cccc2c1C(=O)N(C1CCC(=O)NC1=O)C2=O (stereo not given),–,–,–,–,–,–,–,pIC50 [8]: 7.00
C/C=C/Cc1c(NCc2ccccc2N2CCN(C)CC2)cnn(C)c1=O,7.40,–,5.40,3.1,< 5.00,–,–,–
CNc1cnn(C)c(=O)c1Cl,–,3.90,–,–,–,4.60,–,–
CCCCc1nnc2c(NC(=O)OCC)cc(-c3ccc(C)c(NS(C)(=O)=O)c3)nn12,–,–,–,–,–,–,–,inhibition [9]: > 95%
CCOC(=O)Nc1cc(-c2ccc(C)c(NS(C)(=O)=O)c2)nn2c(C)nnc12,–,–,–,–,–,–,–,inhibition [9]: 100%
CCCCc1c(Nc2cccc3c2CCN(C)C3)cnn(C)c1=O,7.10,< 4.30,–,–,–,–,–,–
CC/C=C/c1c(NCc2ccccc2N2CCN(C)CC2)cnn(C)c1=O,< 5.00,–,< 5.00,3.5,< 5.00,–,–,–
CCc1c(NCc2ccccc2N2CCN(C)CC2)cnn(C)c1=O,7.10,–,5.10,2.3,5.20,–,–,–
Cc1c(NCc2ccccc2)cnn(C)c1=O,–,4.60,–,2.9,–,5.90,20,–
CCCCCc1c(NCc2ccccc2N2CCN(C)CC2)cnn(C)c1=O,6.80,–,5.80,4.2,< 5.00,–,–,–
Cc1c(NCc2ccccc2N2CCOCC2)cnn(C)c1=O,–,4.70,–,3.2,–,7.00,200,–
Cc1c(NCc2ccccc2N2CCCOCC2)cnn(C)c1=O,–,4.90,–,3.5,–,7.00,125,–
Cn1ncc(NCc2ccccc2)c(Cl)c1=O,–,4.70,–,3.2,–,5.70,10,fold selectivity [12]: 6
CC(C)c1c(NCc2ccccc2N2CCN(C)CC2)cnn(C)c1=O,6.50,–,< 5.00,3.1,5.10,–,–,–
C/C=C\Cc1c(NCc2ccccc2N2CCN(C)CC2)cnn(C)c1=O,6.60,–,< 5.00,3,< 5.00,–,–,–
Cc1ccccc1CNc1cnn(C)c(=O)c1C,–,4.60,–,3.6,–,6.40,63,–
Cc1c(NCc2ccccc2N2CCNCC2)cnn(C)c1=O,–,< 4.30,–,0.7,–,6.70,> 250,–
C=CCCc1c(NCc2ccccc2N2CCN(C)CC2)cnn(C)c1=O,6.40,–,< 5.00,3.2,< 5.00,–,–,–

# Continued, in another order:
pKi [1],pIC50 [2],pKi [3],chromatographic logD [4],pKi [5],pIC50 [6],fold selectivity [7],Structure (SMILES),other results
–,4.80,–,1.2,–,7.20,250,Cc1c(NCc2ccccc2N2CCN(CCCN)CC2)cnn(C)c1=O,–
–,4.70,–,4,–,5.60,8,Cc1cccc(CNc2cnn(C)c(=O)c2Cl)c1,–
6.60,–,< 5.00,3.1,< 5.00,–,–,C=C[C@@H](C)c1c(NCc2ccccc2N2CCN(C)CC2)cnn(C)c1=O,–
–,4.90,–,4.8,–,7.00,125,Cc1c(NCc2ccccc2-c2ccccc2)cnn(C)c1=O,–
–,–,–,1.1,–,–,–,CN1CCN(c2ccccc2CNc2cnn(C)c(=O)c2)CC1,pIC50 [1]: < 4.30; pIC50 [3]: < 4.30; Papp [10]: 14 ×10⁻⁶ cm/s; solubility kinetic [11]: ≥ 150 µg/mL
7.00,–,< 5.00,2.5,< 5.00,–,–,C=CCc1c(NCc2ccccc2N2CCN(C)CC2)cnn(C)c1=O,–
8.00,–,–,–,–,–,–,CCCCn1cc(-c2cccc(C(F)(F)F)c2)c2sc(C(=N)NC3CCS(=O)(=O)CC3)cc2c1=O,–
6.50,–,< 5.00,3.1,< 5.00,–,–,C=C[C@H](C)c1c(NCc2ccccc2N2CCN(C)CC2)cnn(C)c1=O,–
–,4.90,–,4,–,6.10,16,Cc1ccc(CNc2cnn(C)c(=O)c2Cl)cc1,–
